PubChem BioAssay AID1963429 (Molecular Pharmacology Branch, DTP, NCI, 2024)
pIC50: −log10 of the molar value.

Tested on: 126254-015-R-J1-PDC complex spheroid growth, % test/control
Experiment: Anticancer human tumor 126254-015-R-J1-PDC patient-derived soft tissue sarcoma cell line growth inhibition [Asc]
Settings: for viability, T/C: stronger effect = lower value
Summary of the method: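 Spheroid model: tumor line + HUVEC + hMSC. Single agents and combinations; top conc. at/near clinical Cmax (10 microM if undetermined), half-log dilutions. DMSO stocks at 800-fold test concentration.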

[1] = curve of first compound, second compound 0.1 µM
[2] = curve of first compound, second compound 0.316 µM
[3] = curve of first compound, second compound 1 µM
[4] = curve of first compound, second compound 3.16 µM
[5] = curve of first compound, second compound 10 µM
[6] = second compound 0.1 µM, first compound 0.00316 µM
[7] = second compound 0.1 µM, first compound 0.01 µM
[8] = second compound 0.1 µM, first compound 0.0316 µM
[9] = second compound 0.1 µM, first compound 0.1 µM
[10] = second compound 0.1 µM, first compound 0.316 µM
[11] = second compound 0.1 µM, first compound 1 µM
[12] = second compound 0.316 µM, first compound 0.00316 µM
[13] = second compound 0.316 µM, first compound 0.01 µM
[14] = second compound 0.316 µM, first compound 0.0316 µM
[15] = second compound 0.316 µM, first compound 0.1 µM
[16] = second compound 0.316 µM, first compound 0.316 µM
[17] = second compound 0.316 µM, first compound 1 µM
[18] = second compound 1 µM, first compound 0.00316 µM
[19] = second compound 1 µM, first compound 0.01 µM
[20] = second compound 1 µM, first compound 0.0316 µM
[21] = second compound 1 µM, first compound 0.1 µM
[22] = second compound 1 µM, first compound 0.316 µM
[23] = second compound 1 µM, first compound 1 µM
[24] = second compound 3.16 µM, first compound 0.00316 µM
[25] = second compound 3.16 µM, first compound 0.01 µM
[26] = second compound 3.16 µM, first compound 0.0316 µM
[27] = second compound 3.16 µM, first compound 0.1 µM
[28] = second compound 3.16 µM, first compound 0.316 µM
[29] = second compound 3.16 µM, first compound 1 µM
[30] = second compound 10 µM, first compound 0.00316 µM
[31] = second compound 10 µM, first compound 0.01 µM
[32] = second compound 10 µM, first compound 0.0316 µM
[33] = second compound 10 µM, first compound 0.1 µM
[34] = second compound 10 µM, first compound 0.316 µM
[35] = second compound 10 µM, first compound 1 µM
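Note: spheroids exposed to compound for seven days.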
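Throughout, for viability, T/C: 100% = DMSO vehicle control wells.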

Compound: NC(=O)C(=Cn1cnc(-c2cc(C(F)(F)F)cc(C(F)(F)F)c2)n1)c1cncnc1 + CCN1C(C(=O)NC23CCC(C(=O)O)(CC2)CC3)C(c2cccc(Cl)c2F)C2(C(=O)Nc3cc(Cl)ccc32)C12CCCCC2
- pIC50 (curve of first compound, second compound 0.03 µM): 7.18
- pIC50 (curve of first compound, second compound 0.0949 µM): 7.31
- pIC50 (curve of first compound, second compound 0.3 µM): 7.36
- pIC50 (curve of first compound, second compound 0.949 µM): 7.31
- pIC50 (curve of first compound, second compound 3 µM): 7.17
- viability, T/C (second compound 0.03 µM, first compound 0.000949 µM): 93.9%
- viability, T/C (second compound 0.03 µM, first compound 0.003 µM): 87.4%
- viability, T/C (second compound 0.03 µM, first compound 0.00949 µM): 79.4%
- viability, T/C (second compound 0.03 µM, first compound 0.03 µM): 77.8%
- viability, T/C (second compound 0.03 µM, first compound 0.0949 µM): 37.5%
- viability, T/C (second compound 0.03 µM, first compound 0.3 µM): 19.6%
- viability, T/C (second compound 0.0949 µM, first compound 0.000949 µM): 102%
- viability, T/C (second compound 0.0949 µM, first compound 0.003 µM): 90.5%
- viability, T/C (second compound 0.0949 µM, first compound 0.00949 µM): 78.6%
- viability, T/C (second compound 0.0949 µM, first compound 0.03 µM): 61.3%
- viability, T/C (second compound 0.0949 µM, first compound 0.0949 µM): 35.8%
- viability, T/C (second compound 0.0949 µM, first compound 0.3 µM): 14%
- viability, T/C (second compound 0.3 µM, first compound 0.000949 µM): 90.1%
- viability, T/C (second compound 0.3 µM, first compound 0.003 µM): 102%
- viability, T/C (second compound 0.3 µM, first compound 0.00949 µM): 83%
- viability, T/C (second compound 0.3 µM, first compound 0.03 µM): 53.1%
- viability, T/C (second compound 0.3 µM, first compound 0.0949 µM): 39.3%
- viability, T/C (second compound 0.3 µM, first compound 0.3 µM): 17.5%
- viability, T/C (second compound 0.949 µM, first compound 0.000949 µM): 96.5%
- viability, T/C (second compound 0.949 µM, first compound 0.003 µM): 87.4%
- viability, T/C (second compound 0.949 µM, first compound 0.00949 µM): 96.1%
- viability, T/C (second compound 0.949 µM, first compound 0.03 µM): 64.2%
- viability, T/C (second compound 0.949 µM, first compound 0.0949 µM): 31.6%
- viability, T/C (second compound 0.949 µM, first compound 0.3 µM): 21%
- viability, T/C (second compound 3 µM, first compound 0.000949 µM): 102%
- viability, T/C (second compound 3 µM, first compound 0.003 µM): 99.3%
- viability, T/C (second compound 3 µM, first compound 0.00949 µM): 87.7%
- viability, T/C (second compound 3 µM, first compound 0.03 µM): 70.2%
- viability, T/C (second compound 3 µM, first compound 0.0949 µM): 41.1%
- viability, T/C (second compound 3 µM, first compound 0.3 µM): 19.6%

Compound: O=C(c1ccc(F)c(F)c1Nc1ccc(I)cc1F)N1CC(O)([C@@H]2CCCCN2)C1 + Cc1c(S(C)(=O)=O)c(-c2cc(F)cc(N3CCN(c4ccc(NS(=O)(=O)c5ccc(NC(CCN6CCC(C(=O)OCCCP(=O)(O)O)CC6)CSc6ccccc6)c(S(=O)(=O)C(F)(F)F)c5)cc4)CC3)c2)c(-c2ccc(Cl)cc2)n1C(C)C
- pIC50 [1]: 6.19
- pIC50 [2]: 6.30
- pIC50 [3]: 6.31
- pIC50 [4]: 6.38
- pIC50 [5]: 6.49
- viability, T/C [6]: 87.3%
- viability, T/C [7]: 106%
- viability, T/C [8]: 106%
- viability, T/C [9]: 87.7%
- viability, T/C [10]: 70.7%
- viability, T/C [11]: 37.6%
- viability, T/C [12]: 88.5%
- viability, T/C [13]: 87.7%
- viability, T/C [14]: 84.7%
- viability, T/C [15]: 83.4%
- viability, T/C [16]: 60.9%
- viability, T/C [17]: 33.6%
- viability, T/C [18]: 89.2%
- viability, T/C [19]: 93.7%
- viability, T/C [20]: 83.9%
- viability, T/C [21]: 79.3%
- viability, T/C [22]: 65.5%
- viability, T/C [23]: 26.9%
- viability, T/C [24]: 88.1%
- viability, T/C [25]: 92%
- viability, T/C [26]: 75.5%
- viability, T/C [27]: 82.5%
- viability, T/C [28]: 55.8%
- viability, T/C [29]: 27.6%
- viability, T/C [30]: 90.1%
- viability, T/C [31]: 98%
- viability, T/C [32]: 80.2%
- viability, T/C [33]: 75.3%
- viability, T/C [34]: 49.6%
- viability, T/C [35]: 25.3%

Compound: COc1c(OCCCN2CCOCC2)ccc2c3n(c(=NC(=O)c4cnc(N)nc4)nc12)CCN3 + Cc1c(S(C)(=O)=O)c(-c2cc(F)cc(N3CCN(c4ccc(NS(=O)(=O)c5ccc(NC(CCN6CCC(C(=O)OCCCP(=O)(O)O)CC6)CSc6ccccc6)c(S(=O)(=O)C(F)(F)F)c5)cc4)CC3)c2)c(-c2ccc(Cl)cc2)n1C(C)C
- pIC50 [1]: 7.31
- pIC50 [2]: 7.36
- pIC50 [3]: 7.32
- pIC50 [4]: 7.38
- pIC50 [5]: 7.34
- viability, T/C [6]: 96.5%
- viability, T/C [7]: 84.5%
- viability, T/C [8]: 63.5%
- viability, T/C [9]: 28.3%
- viability, T/C [10]: 16%
- viability, T/C [11]: 8.08%
- viability, T/C [12]: 88%
- viability, T/C [13]: 76.6%
- viability, T/C [14]: 59.1%
- viability, T/C [15]: 29.7%
- viability, T/C [16]: 15.3%
- viability, T/C [17]: 8.05%
- viability, T/C [18]: 83.7%
- viability, T/C [19]: 75.5%
- viability, T/C [20]: 61.9%
- viability, T/C [21]: 30.4%
- viability, T/C [22]: 14.9%
- viability, T/C [23]: 8.15%
- viability, T/C [24]: 77.5%
- viability, T/C [25]: 77.5%
- viability, T/C [26]: 54.9%
- viability, T/C [27]: 30.1%
- viability, T/C [28]: 14.3%
- viability, T/C [29]: 8.66%
- viability, T/C [30]: 84.2%
- viability, T/C [31]: 87.7%
- viability, T/C [32]: 55.6%
- viability, T/C [33]: 30.6%
- viability, T/C [34]: 15.8%
- viability, T/C [35]: 7.09%

Compound: Cc1c(S(C)(=O)=O)c(-c2cc(F)cc(N3CCN(c4ccc(NS(=O)(=O)c5ccc(NC(CCN6CCC(C(=O)OCCCP(=O)(O)O)CC6)CSc6ccccc6)c(S(=O)(=O)C(F)(F)F)c5)cc4)CC3)c2)c(-c2ccc(Cl)cc2)n1C(C)C (stereo unspecified)
- viability, T/C (compound 0.1 µM): 86.8% [middle of 14 runs]
- viability, T/C (compound 0.316 µM): 85.8% [middle of 13 runs]
- viability, T/C (compound 1 µM): 84.3% [middle of 14 runs]
- viability, T/C (compound 3.16 µM): 87.8% [middle of 14 runs]
- viability, T/C (compound 10 µM): 81.8% [middle of 14 runs]
- pIC50 (compound alone, run of 09/27/2022): < 5.00
